Results from patent publication US5162336A, “Tetrahydro-pyrido-indoles as cholecystokinin and gastrin antagonists” (Rhone-Poulenc Rorer Pharmaceuticals Inc., priority 1990, dated 1992).

Biological target: T1, Gastrin receptor (Cavia porcellus, UniProt H0VZC5)
T1 construct: The fundic mucosa is gently scraped off the submucosa; from tissue; host or cells: gastric glands from fundic mucosa of Hartley guinea pig
T1 sequence (H0VZC5 1-426): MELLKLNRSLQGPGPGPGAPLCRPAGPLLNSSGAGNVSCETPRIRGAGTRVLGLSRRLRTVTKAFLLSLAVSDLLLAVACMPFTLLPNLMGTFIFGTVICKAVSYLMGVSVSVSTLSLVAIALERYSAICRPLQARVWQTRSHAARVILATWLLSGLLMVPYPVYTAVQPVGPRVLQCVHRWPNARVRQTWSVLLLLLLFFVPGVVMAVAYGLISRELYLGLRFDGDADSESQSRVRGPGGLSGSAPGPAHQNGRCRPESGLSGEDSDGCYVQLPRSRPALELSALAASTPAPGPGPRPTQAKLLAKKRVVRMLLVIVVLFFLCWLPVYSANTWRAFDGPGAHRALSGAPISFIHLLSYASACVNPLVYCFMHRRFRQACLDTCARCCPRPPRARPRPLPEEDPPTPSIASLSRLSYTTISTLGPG
Test: Gastrin receptor binding assay (displacement of 125I-(Leu-15)-Gastrin from guinea pig fundic glands)
Set-up: species or system guinea pig (Hartley Strain)
Conditions: guinea pig fundic mucosa glands, 25° C., 30 min, read-out: In vitro Binding Data IC50 Gastrin
Protocol: (a) Phosphate Buffered Saline (PBS): 8.743 g NaCl, 523 mg K2 HPO4 and 76.8 mg NaH2 PO4 is dissolved in 1.0 liter of deionized water and the pH of the solution is adjusted to 7.3 with 5N NaOH.
(b) Buffer A: While adding Basal Medium Eagle (BME) containing Earle's Salts, L-glutamine and 25 mM HEPES, 3 liters of deionized water is stirred, followed by the addition and dissolution of […] of sodium bicarbonate. The solution is then equilibrated with 95% O2 /5% CO2 gas followed by titration to a pH of 7.4 with NaOH.
(c) Buffer B: 18.75 mg of collagenase and […] of BSA is dissolved in 25 ml of Buffer A.
(d) Buffer C: 0.3 g of BSA is dissolved in 300 ml of Buffer A.
(e) 6.25 mg Bacitracin is dissolved in 25 ml of Buffer A.
(f) ^125 I-(Leu-15)-Gastrin: 100 microcurie dissolved in 2.0 ml of Buffer A to make 50 microcurie/ml.
(g) ^125 I-(15-methionine)-Human Gastrin: 50 microcurie/ml.
(h) (Leu 15)-Gastrin: 5.2 mg of (Leu-15)- Gastrin is dissolved in 10 ml of Buffer A. At the time of assay 1:10 dilution is made and 10 μl assay tube is used.
A guinea pig (Hartley Strain) weighing 150-200 grams, is sacrificed by CO2 asphyxiation and the stomach immediately excised, cut along the greater curvature, cleaned out and immediately immersed in a beaker containing cold PBS, pH 7.3, to insure thorough cleaning. The fundic mucosa is gently scraped off the submucosa and added to a preweighed 50 ml plastic centrifuge tube containing 30 ml of cold Buffer A. The weight of the plastic centrifuge tube containing the buffer is then subtracted from the combined weight of the mucosa and the buffer-containing tube to give the weight of the mucosa. The weight of the mucosa thus determined is recorded for later calculations.
The mucosa is then washed twice in Buffer A. After the final wash, the tissue is minced and is placed in a 100-ml glass beaker containing about 1.0 ml of Buffer A, and washed twice again by repeated centrifugation at 50×g for 5 minutes each and aspiration of supernatant. The washed tissue fragments are then added to a glass Erlenmeyer flask containing 25 ml of Buffer B and incubated in a Dubnoff shaking water bath at 37° C. for 30 minutes in a 95% O2 - 5% CO2 atmosphere. After the incubation, the digested tissue fragments in the Collegenase-buffer solution are triturated, filtered through a 200-micron nylon mesh and centrifuged at 50×g for 5 minutes. The supernatant is aspirated and discarded, the tissue washed 2× in Buffer C, resuspended in same buffer, incubated in a 37° C. water bath in an atmosphere of 95% O2 - 5% CO2 for 5 minutes, and centrifuged. The pelleted glands are suspended in Buffer D at a desired concentration of 2x10^5 glands/ml to use in the receptor binding assay.
Six minisorp tubes (16×100 mm) are serially marked and divided into two groups thus: tubes #1, #2, and #3 are marked "T" for "Totals" and tubes #4, #5, and #6 are marked "NS" for "Non-Specifics." Into each of the six tubes are added 220 μl of prepared glands in Buffer D; 20 μl of Buffer A in tubes #1, #2, and #3; 10 μl, in tubes #4, #5 and #6; (10μ of (Leu-15)-Gastrin (25 μM) in tubes #4, #5, and #6. The six tubes are then transferred immediately to a 25° C. water bath and challenged each with 10 μl ^125 I-(Leu-15)-Gastrin diluted as per calculation. The tubes are then covered with a gas hood connected to a 95% O2 - 5% CO2 gas source and mechanically agitated in a shaker for 30 minutes.
At the end of the incubation period, the assay mixtures are each filtered through a Whatman glass fiber filter B on a Brandel tissue harvester and washed twice with Buffer A. The filters are pre-soaked in Buffer C before use. The filter strips are removed after the final wash and individual filters counted in a Gamma Counter. The counts from the "Non-Specific" tubes are then averaged and subtracted from the average "Totals" to give the Specific Counts. […]

Going from `CC(C)C[C@H](NC(=O)[C@H]1Cc2c([nH]c3ccccc23)CN1C(=O)Nc1ccc(Cl)c(Cl)c1)C(=O)NCC(N)=O` [Example 28] to `Cc1cccc(NC(=O)N2Cc3[nH]c4ccccc4c3C[C@@H]2C(=O)N[C@@H](CC(C)C)C(N)=O)c1` [Example 39, N-[(3R)-2-(3-methylphenylcarbamoyl)-1,2,3,4-tetrahydro-9H-pyrido[3,4-b]indole-3-carboxy]-L-leucinamide], the IC50 falls from 0.91 µM to 0.23 µM (4-fold).

`CC(C)C[C@H](NC(=O)[C@H]1Cc2c([nH]c3ccccc23)CN1)C(=O)N[C@@H](CC(=O)OCc1ccccc1)C(N)=O` [Example 40] and `Cc1cccc(C(=O)N2Cc3[nH]c4ccccc4c3C[C@@H]2C(=O)N[C@@H](CC(C)C)C(=O)N[C@@H](CC(=O)O)C(N)=O)c1` [Example 54] are within 1.5-fold of each other in IC50: 6 µM for the first, 6.8 µM for the second.

Compared with `Cc1cccc(NC(=O)N2Cc3[nH]c4ccccc4c3C[C@@H]2C(=O)N[C@@H](CC(C)C)C(=O)N[C@@H](Cc2ccccc2)C(N)=O)c1` [Example 42], `Cc1cccc(NC(=O)N2Cc3[nH]c4ccccc4c3C[C@@H]2C(=O)N[C@H](CC(C)C)C(=O)N[C@H](CC(=O)O)C(N)=O)c1` [Example 45] is higher in IC50: 10 µM for the first, > 10 µM for the second. The first is the more potent here.

Compared with `CCOC(=O)c1ccc(NC(=O)[C@H]2Cc3c([nH]c4ccccc34)CN2C(=O)Nc2cccc(C)c2)cc1` [Example 43], `Cc1cccc(NC(=O)N2Cc3[nH]c4ccccc4c3C[C@@H]2C(=O)NCC(=O)N[C@@H](CC(=O)O)C(N)=O)c1` [Example 56, N-[(3R)-2-(3-methylphenylcarbamoyl)-1,2,3,4-tetrahydro-9H-pyido[3,4-b]indole-3-carboxyl]glycyl-L-aspartic acid amide] is higher in IC50: 30 µM for the first, > 30 µM for the second.

Compared with `Cc1cccc(NC(=O)N2Cc3[nH]c4ccccc4c3C[C@@H]2C(=O)N2CCC[C@H]2C(=O)N[C@@H](CC(=O)O)C(N)=O)c1` [Example 44, N-[(3R)-2-(3-methylphenylcarbamoyl)-1,2,3,4-tetrahydro-9H-pyrido[3,4-b]indole-3-carboxyl]-L-prolyl-L-aspartic acid amide], `Cc1cccc(NC(=O)N2Cc3[nH]c4ccccc4c3C[C@H]2C(=O)N[C@H](CC(C)C)C(=O)N[C@H](CC(=O)O)C(N)=O)c1` [Example 49] is 2.4-fold lower in IC50: 2.2 µM for the first, 0.9 µM for the second. The second is the more potent here.

Going from `CCCCCN(CCCCC)C(=O)[C@H](CC(=O)O)NC(=O)[C@H]1Cc2c([nH]c3ccccc23)CN1C(=O)Nc1cccc(C)c1` [Example 46, N-[(3R)-2-(3-methylphenylcarbamoyl)-1,2,3,4-tetrahydro-9H-pyrido[3,4-b]indole-3-carboxyl]-L-aspartic acid dipentyl amide] to `Cc1cccc(NC(=O)N2Cc3[nH]c4ccccc4c3C[C@@H]2C(=O)N[C@@H](CC(C)C)C(=O)N[C@H](CC(=O)O)C(N)=O)c1` [Example 51, N-[(3R)-2-(3-methylphenylcarbamoyl)-1,2,3,4-tetrahydro-9H-pyrido[3,4-b]indole-3-carboxyl]-L-leucyl-D-aspartic acid amide], the IC50 rises from 2.6 µM to 17 µM (6.5-fold). The first is the more potent here.

Compared with `Cc1cccc(NC(=O)N2Cc3[nH]c4ccccc4c3C[C@@H]2C(=O)N[C@@H](CC(C)C)C(=O)N[C@@H](CC(N)=O)C(=O)O)c1` [Example 50], `Cc1cccc(NC(=O)N2Cc3[nH]c4ccccc4c3C[C@H]2C(=O)N[C@H](CC(C)C)C(=O)N[C@@H](CC(=O)O)C(N)=O)c1` [Example 52] is higher in IC50: 12 µM for the first, > 30 µM for the second.

First: Cc1cccc(NC(=O)N2Cc3[nH]c4ccccc4c3C[C@@H]2C(=O)N(C)[C@@H](CC(C)C)C(=O)N[C@@H](CC(=O)O)C(N)=O)c1 [Example 53, N-[(3R)-2-(3-methylphenylcarbamoyl)-1,2,3,4-tetrahydro-9H-pyrido[3,4-b]indole-3-carboxyl]N'-methyl-L-leucine-L-aspartic acid amide]
Second: CC(C)C[C@H](NC(=O)[C@H]1Cc2c([nH]c3ccccc23)CN1C(=O)Nc1ccc(Cl)cc1)C(=O)N[C@@H](CC(=O)O)C(N)=O [Example 55, N-[(3R)-2-(4-chlorophenylcarbamoyl)-1,2,3,4-tetrahydro-9H-pyrido[3,4-b]indole-3-carboxyl]-L-leucyl-L-asartic acid amide]
The IC50 of the first is 1.8-fold higher: 6 µM for the first, 3.3 µM for the second.
